Laboratory results published in ChEMBL document CHEMBL3507680, “University of Dundee, Gates Library screen for HepG2 cell viability”.

Test: Human HepG2 cell viability assay in 384 well format
Assay type: toxicity, cell-based
Parameters: dose 125 nL, time 70.5 hour; concentration not given beside the values
Conditions: HepG2 cells, read-out: Inhibition

SMILES | cytotoxicity at 70.5 h [%]
COCCn1ccnc1C1CCCN(C(=O)c2cc(F)cc(F)c2)C1 (centres undefined) | -3.01
COC(=O)c1ccc(NC(=O)NC2CCc3[nH]ncc3C2)cc1 (centres undefined) | 1.54
N#Cc1cc(Cl)ccc1N1CCN(C(=O)C2CCC2)CC1 | -1.06
CC(=O)N(Cc1ccoc1)C1CCCCC1 | -5.21
CCCS(=O)(=O)N1CCCC(CCC(=O)N(C)CCc2ccccn2)C1 (centres undefined) | -0.331
OCC1(NCc2cccc(-n3cccn3)c2)CCOCC1 | -1.42
O[C@@H]1CN(CC2CC2)CC[C@H]1N1CCN(c2ccccc2F)CC1 | 0.0849
CN(C(=O)Cc1ccccc1Cl)C1CCN(c2ccccn2)CC1 | 2.75
CCN(CC)C1CCN(C(=O)Nc2cc(F)c(OC)c(F)c2)C1 (centres undefined) | 1.91
CN(C)CCN1CC(C(=O)N(C)Cc2cc3cc(F)ccc3[nH]2)CC1=O (centres undefined) | -7.58
Cc1nc(C)n(C2CCCN(C(=O)c3cn4c(C)cccc4n3)C2)n1 (centres undefined) | 19.8
CN(CCc1ccccn1)C(=O)C(O)c1ccc(Br)cc1 (centres undefined) | -4.38
Cc1ccc(N2CCCC3(CCN(C(=O)CC(F)(F)F)C3)C2)nn1 (centres undefined) | -10.2
CC(C)c1cc(C(=O)NCC2(C(N)=O)CCOCC2)nn1C(C)(C)C | -4.75
CCN(Cc1ccc2c(c1)OCO2)Cc1nc2c(cnn2C)c(=O)[nH]1 | 7.27
CCN1CCCC1CN(Cc1cc[nH]n1)CC1CCN(CCOC)CC1 (centres undefined) | 6.24
CC(CNC(=O)c1nnn(-c2ccccc2)c1C(F)(F)F)N(C)C (centres undefined) | -8.59
CCN(C)c1ccc(CNC(=O)c2ccc(NC(N)=O)cc2)cc1F | -17.6
CC(C)n1nc(CN2CCCC2)c2c1CN(CC1CC1)CC2 | -1.54
CS(=O)(=O)c1ccc(CNC(=O)N2CCC(CO)CC2)cc1 | -2.86
COc1cc(Oc2ccc(C(N)=O)cn2)ccc1CN1CCCC1 | -6.89
Cc1ncc(CNCC(=O)NCC(F)(F)F)n1-c1ccccc1 | -5.37
O=C(c1cnccn1)N1CCn2cnc(COCC3CC3)c2C1 | 14.8

SMILES | cytotoxicity at 70.5 h [%]
CSc1ccc(CNC(c2ccccc2F)c2nccn2C)cc1 (centres undefined) | 0.516
CCS(=O)(=O)N1CCC2(CC(=O)N(c3cnn(C)c3)C2)C1 (centres undefined) | -2.5
CCC(C)Oc1cc(C(=O)N(c2cccnc2)C(C)C)ccn1 (centres undefined) | 0.858
Cc1c(CS(C)(=O)=O)cccc1NC(=O)CC1CCCC1 | -7.53
O=C(NCCCN1CCN(c2ncccn2)CC1)NCC1CCCO1 (centres undefined) | -3.85
O=C(c1cncc2ccccc12)N1CCC[C@@H]1CO | -11.6
Cc1cc(C)n(CC2CCCN2C(=O)c2cccc(C#N)c2)n1 (centres undefined) | -2.63
CCc1noc(CS(=O)(=O)Cc2ccccc2C)n1 | 15
CC(NC(=O)N(C)C1CC1)c1ccc(Oc2cccnc2)c(F)c1 (centres undefined) | -8.76
Cc1cnc(N2CCC3(CC2)CN(Cc2cccs2)CCO3)nc1 | -8.99
Cc1ccc(CNCC2Cn3nnc(-c4cccc(F)c4)c3CO2)o1 (centres undefined) | -2
Cc1cc(C2CCCCN2C(=O)c2cccn2C)nc2nccn12 (centres undefined) | 4.86
COCCNC(=O)C[C@@H]1COC[C@H]2CN(C(=O)COC)C[C@@H]12 | -8.18
Cc1cc(C)nc(N2CC=C[C@H]2C(=O)NCc2ccc3c(c2)OCO3)n1 | -3.34
C=C(C)CN(Cc1cccc(O)c1)C1CCC(O)CC1 (centres undefined) | -6.84
N#CC1(NC(=O)COc2cc(Cl)cc(Cl)c2)CCSC1 (centres undefined) | -14.6
CCN(CC)Cc1nnc2sc(-c3cc(C(C)C)[nH]n3)nn12 | -8.88
CCOc1ccc(CN2C(=O)CC3(CCCC3)C2=O)nc1 | 17.6
CCc1ccc2nc(C)cc(C(=O)N[C@@H]3C[C@@H](CO)N(C)C3)c2c1 | -3.88
CC(C)(C)NC(=O)CNc1ccc(C#N)c(C(F)(F)F)c1 | -5.25
Cc1cc(C)n(Cc2cccc(C(=O)N3CCOCC3(C)C)c2)n1 | -10
NS(=O)(=O)c1cccc(CNc2nccc(C(F)(F)F)n2)c1 | -5.9
Cc1cc2ncn(C(=O)N3CCOCC3)c2cc1C | -5.67

SMILES | cytotoxicity at 70.5 h [%]
O=C(NC(CO)CO)c1coc(COc2cccc(F)c2)n1 | -13
Cc1cc(N(C)Cc2ncc[nH]2)nc(-c2ccccc2)n1 | -6.89
Cn1cnnc1CNC(=O)CCCOc1ccccc1Cl | -14.3
CCn1c(C)nc2cc(NC(=O)CC3CCN(S(C)(=O)=O)CC3)ccc21 | -18.6
CC(C)(C)OC(=O)N1CCn2c(nnc2C2CCCNC2)C1 (centres undefined) | 6.76
CS(=O)(=O)N1C[C@@H]2COC[C@]2(CN2CCOCC2)C1 | -8.04
O=C(CCn1ccnc1)N1CC[C@H](Oc2ccc(F)cc2)[C@@H](O)CC1 | 0.282
Cc1nccn1-c1ccc(NS(=O)(=O)c2cccnc2)cn1 | -1.79
CCNC(=O)N1CCc2ccc(NC(=O)NCc3ccsc3)cc21 | 9.35
CN(Cc1nc(C2CC2)no1)C1CCCN(c2cccnn2)C1 (centres undefined) | -19.7
Cc1ncc(CN)c(-c2cn(C)c3ccccc23)n1 | -7.92
O=C1[C@H]2CN(Cc3ccoc3)C[C@@H]2CCN1Cc1cccnc1 | -8.89
CS(=O)(=O)N1CCCC(Cc2cnc(Br)cn2)C1 (centres undefined) | 22.6
CN(CC(O)CO)C(=O)c1coc(COc2cccc(F)c2)n1 (centres undefined) | 8.53
CCCOC1CCCN(C(=O)c2cnc(-c3csc(C)n3)nc2O)C1 (centres undefined) | -6.67
Cc1c(NC(=O)c2cccc(Br)c2)c(C(=O)N(C)C)nn1C | 22.7
CS(=O)(=O)CCCN(CCCO)C1CCc2ccccc21 (centres undefined) | -107
CCc1nc(Nc2ccc(C(=O)NC)cc2)c2c(n1)c(C)nn2CC | -16.9
COCc1ccccc1C(=O)NCC(c1c(F)cccc1F)N(C)C (centres undefined) | 0.326
CCCN1C(=O)C2(CCCCC2)NC1c1cn(C)c(=O)n(C)c1=O (centres undefined) | -6.69
CNC(=O)c1ccc(S(=O)(=O)NCCc2ccccn2)cc1 | 1.59
c1cnnc(N2CCCC(NCc3ccc(-n4cccn4)cc3)C2)c1 (centres undefined) | -4.64
CCc1ncc(C(=O)N2CCn3c(CC)nnc3C2)s1 | -13.9

SMILES | cytotoxicity at 70.5 h [%]
CCN(Cc1ccccc1)C(=O)CN1CCOC(Cn2cncn2)C1 (centres undefined) | 5.38
CCN1CCCN(S(=O)(=O)c2cnc3onc(C)c3c2)CC1 | -7.12
CCCc1cc(=O)[nH]c(-c2cccc(CN3CCN4CCCC4C3)c2)n1 (centres undefined) | -6.97
CNC(=O)Cc1noc(Cc2cccc(Br)c2)n1 | -9.45
CCCc1nccn1-c1ccncc1 | -5.45
CN(CC1(O)CCCN(CCC2CCCCC2)C1=O)C1CCOCC1 (centres undefined) | -5.64
Cc1cccc(-c2noc(CN3CCC(c4ccn[nH]4)CC3)n2)c1 | -1.2
CN(C)CCOCC1CN(C(=O)c2cccn2C)Cc2ccnn2C1 (centres undefined) | 8.36
CC(=O)NCC(=O)NC1CCc2nccn2C1 (centres undefined) | 7.09
O=C(c1cnc2[nH]c(=O)[nH]c(=O)c2c1)N1CCCC1C1CCCC1 (centres undefined) | -11.9
CCCc1nc(CN2CCCC(Cn3cncn3)C2)no1 (centres undefined) | 3.03
Cc1ccc2cnn(CCC(=O)Nc3c(C)nn(C)c3C)c2c1 | -6.3
c1cncc(NCCNC2CCSC2)c1 (centres undefined) | 14.7
CCCc1cc(C(=O)NC2CCCCNC2=O)[nH]n1 (centres undefined) | -5.95
Cc1oncc1C(=O)N1CC[C@H]2C[C@H](c3ccncn3)O[C@@H]2C1 | 7.58
CC1CN(CC(=O)NCc2ccc(F)cc2)CCN1c1nccs1 (centres undefined) | 0.122
Cc1nc2c(c(NC(C)C)n1)CCN(C(=O)c1ccno1)CC2 | -6.32
O=S(=O)(NCC(O)c1ccc(C(F)(F)F)cc1)C1CC1 (centres undefined) | 12.5
CC(=O)NCCc1ccc(S(=O)(=O)Nc2ccc(C)cc2F)s1 | -2.14
OC[C@@H]1CCCN1Cc1cn(C2CCN(C3CCCC3)CC2)nn1 | -4.14
CCNC(=O)[C@@H]1C[C@H](NC(=O)c2ccc(C)s2)CN1Cc1ccc(C)o1 | 16.1
CC(C)c1nn(C)c(N2CCOCC2)c1CNCc1nncn1C | 0.87
COc1ncccc1CN1CCC2(CCCN2S(C)(=O)=O)CC1 | -7.14

SMILES | cytotoxicity at 70.5 h [%]
COc1cc(C)nc(N2CCN(C(=O)CSC)CC2)n1 | -11.8
COc1ccc(CNC(C)c2cccc(Br)c2)c(OC)c1OC (centres undefined) | 17.6
COC(=O)c1ccn(CC(=O)Nc2nn(CC3CC3)c3ccccc23)n1 | -0.998
Cc1nc(CN2CCOCC3(CCN(c4ccccn4)C3)C2)cs1 (centres undefined) | -40.4
O=C(c1ncccn1)N1CC[C@H]2OCC[C@@]2(COc2ccccn2)C1 | -6.64
c1ccc(-c2noc(C3CCN(CCCn4cncn4)CC3)n2)cc1 | 0.0875
COCC(NC(=O)NCc1cccc(Cl)c1)c1ccco1 (centres undefined) | -5.77
O=C(C1CCCCN1Cc1nc(-c2ccco2)no1)N1CCCC1 (centres undefined) | 4.12
O=C(CN1CCC(c2ccccc2)CC1)NCc1cc2n(n1)CCNC2 | -10.6
Cn1nc2c(cc1=O)CN(Cc1coc(-c3ccc(F)cc3)n1)CC2 | 14.8
CN(CC(N)=O)S(=O)(=O)c1ccc(F)cc1F | -7.55
N#Cc1ccc(N2CCC3(CCC(=O)N3Cc3ccncc3)CC2)nc1 | -6.82
Cc1nc(CN2CCC3(C2)CN(C(=O)c2conc2C)C3)cs1 | -3.94
Cc1ccc2c(n1)N(CCN(C)C)CCN(C(=O)c1ccc[nH]1)C2 | 0.599
O=C(NCCN1CCCCC1=O)C1CCC(=O)N(C2CCCC2)C1 (centres undefined) | -3.21
COc1cc(C(=O)NCCCc2ccccc2)on1 | -1.09
CO[C@@H]1CC[C@H]2[C@H]1OCCN2CC1CCOCC1 | -2.79
COCc1cc(CNCc2c(C)n(CC(C)C)c3ccccc23)n[nH]1 | -11
COCCCN(Cc1cnc(-c2cccs2)nc1)C1CCN(C)CC1 | -12
COc1cccc(CN2CC[C@H](c3nnc(-c4ccco4)o3)C2)c1 | 10.6
Cc1ccc(S(=O)(=O)N2CCC(c3n[nH]cc3C(=O)N(C)C)CC2)cc1 | 8.18
CC(c1cccc(-c2nccn2CCc2cn[nH]c2)c1)N(C)C (centres undefined) | 4.99
